Key:
Assay in all cases: relative viability (nuclei count vs DMSO), 5 days (fraction); higher = more cells survive
BAM7 + Alpelisib = compound: CCOC1=CC=CC=C1N=NC2=C(NN(C2=O)C3=NC(=CS3)C4=CC=CC=C4)C [BAM7] + Cc1nc(NC(=O)N2CCC[C@H]2C(N)=O)sc1-c1ccnc(C(C)(C)C(F)(F)F)c1 [Alpelisib] (partner 2 µM)
In short: (§1)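 One day after seeding in 1536-well plates, lung cancer cell lines were dosed by pin tool. Dosing was either single-drug or a fixed anchor-drug dose plus five library-drug doses (not always all listed) in √10 steps. After 5 days, nuclei were stained in one fix-and-stain step and counted on 4× images, and relative viability is the nuclei count of treated wells over that of vehicle wells, given as the median of duplicate plates.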

[1] = compound: CCn1c(-c2nonc2N)nc2c(C#CC(C)(C)O)ncc(OC[C@H]3CCCNC3)c21 + CC(C)C[C@H](NC(=O)[C@H](Cc1ccccc1)NC(=O)c1cnccn1)B(O)O [Bortezomib] (partner 0.002 µM)
In short: as §1

[2] = compound: CCn1c(-c2nonc2N)nc2c(C#CC(C)(C)O)ncc(OC[C@H]3CCCNC3)c21 + C[C@]1(O)C[C@@H](c2nc(-c3ccc4ccc(-c5ccccc5)nc4c3)c3c(N)nccn32)C1 [Linsitinib] (partner 1 µM)
In short: as §1

BAM7 + Olaparib = compound: CCOC1=CC=CC=C1N=NC2=C(NN(C2=O)C3=NC(=CS3)C4=CC=CC=C4)C [BAM7] + O=C(c1cc(Cc2n[nH]c(=O)c3ccccc23)ccc1F)N1CCN(C(=O)C2CC2)CC1 [Olaparib] (partner 8 µM)
In short: as §1

Cell Line: NCI-H1666
- relative viability (BAM7 + Alpelisib; first compound 0.5 µM): 1.04
- relative viability (BAM7 + Alpelisib; first compound 5 µM): 0.892
- relative viability (BAM7 + Alpelisib; first compound 15.81 µM): 0.9
- relative viability (BAM7 + Alpelisib; first compound 50 µM): 0.984
- relative viability ([1]; first compound 0.01 µM): 0.688
- relative viability ([1]; first compound 0.03162 µM): 0.678
- relative viability ([1]; first compound 0.1 µM): 0.869
- relative viability ([1]; first compound 0.3162 µM): 0.762
- relative viability ([1]; first compound 1 µM): 0.841
- relative viability ([2]; first compound 0.01 µM): 0.805
- relative viability ([2]; first compound 0.03162 µM): 0.92
- relative viability ([2]; first compound 0.1 µM): 0.928
- relative viability ([2]; first compound 0.3162 µM): 0.732
- relative viability ([2]; first compound 1 µM): 0.738
- relative viability (BAM7 + Olaparib; first compound 0.5 µM): 0.818
- relative viability (BAM7 + Olaparib; first compound 5 µM): 0.727
- relative viability (BAM7 + Olaparib; first compound 15.81 µM): 0.752
- relative viability (BAM7 + Olaparib; first compound 50 µM): 0.781

Cell Line: LC-2-ad
- relative viability (BAM7 + Alpelisib; first compound 0.5 µM): 0.998
- relative viability (BAM7 + Alpelisib; first compound 5 µM): 0.893
- relative viability (BAM7 + Alpelisib; first compound 15.81 µM): 0.746
- relative viability (BAM7 + Alpelisib; first compound 50 µM): 0.855
- relative viability ([1]; first compound 0.01 µM): 0.986
- relative viability ([1]; first compound 0.03162 µM): 0.993
- relative viability ([1]; first compound 0.1 µM): 1.03
- relative viability ([1]; first compound 0.3162 µM): 0.977
- relative viability ([1]; first compound 1 µM): 0.968
- relative viability ([2]; first compound 0.01 µM): 0.878
- relative viability ([2]; first compound 0.03162 µM): 0.919
- relative viability ([2]; first compound 0.1 µM): 0.836
- relative viability ([2]; first compound 0.3162 µM): 0.849
- relative viability ([2]; first compound 1 µM): 0.875
- relative viability (BAM7 + Olaparib; first compound 0.5 µM): 0.676
- relative viability (BAM7 + Olaparib; first compound 5 µM): 0.633
- relative viability (BAM7 + Olaparib; first compound 15.81 µM): 0.634
- relative viability (BAM7 + Olaparib; first compound 50 µM): 0.646

Cell Line: SK-LU-1
- relative viability (BAM7 + Alpelisib; first compound 0.5 µM): 0.703
- relative viability (BAM7 + Alpelisib; first compound 5 µM): 1.1
- relative viability (BAM7 + Alpelisib; first compound 15.81 µM): 0.955
- relative viability (BAM7 + Alpelisib; first compound 50 µM): 1.09
- relative viability ([1]; first compound 0.01 µM): 1.08
- relative viability ([1]; first compound 0.03162 µM): 1.08
- relative viability ([1]; first compound 0.1 µM): 0.707
- relative viability ([1]; first compound 0.3162 µM): 0.992
- relative viability ([1]; first compound 1 µM): 1.22
- relative viability ([2]; first compound 0.01 µM): 1.06
- relative viability ([2]; first compound 0.03162 µM): 1.23
- relative viability ([2]; first compound 0.1 µM): 1.22
- relative viability ([2]; first compound 0.3162 µM): 1.19
- relative viability ([2]; first compound 1 µM): 1.09
- relative viability (BAM7 + Olaparib; first compound 0.5 µM): 0.463
- relative viability (BAM7 + Olaparib; first compound 5 µM): 0.542
- relative viability (BAM7 + Olaparib; first compound 15.81 µM): 0.444
- relative viability (BAM7 + Olaparib; first compound 50 µM): 0.55

Cell Line: ChaGo-K-1
- relative viability ([1]; first compound 0.01 µM): 0.972
- relative viability ([1]; first compound 0.03162 µM): 0.795
- relative viability ([1]; first compound 0.1 µM): 1.01
- relative viability ([1]; first compound 0.3162 µM): 0.99
- relative viability ([1]; first compound 1 µM): 0.954
- relative viability (BAM7 + Olaparib; first compound 0.5 µM): 0.377
- relative viability (BAM7 + Olaparib; first compound 5 µM): 0.377
- relative viability (BAM7 + Olaparib; first compound 15.81 µM): 0.292
- relative viability (BAM7 + Olaparib; first compound 50 µM): 0.396

Cell Line: COR-L 105
- relative viability (BAM7 + Alpelisib; first compound 0.5 µM): 1.01
- relative viability (BAM7 + Alpelisib; first compound 5 µM): 1.06
- relative viability (BAM7 + Alpelisib; first compound 15.81 µM): 0.967
- relative viability (BAM7 + Alpelisib; first compound 50 µM): 0.981
- relative viability ([1]; first compound 0.01 µM): 0.82
- relative viability ([1]; first compound 0.03162 µM): 0.783
- relative viability ([1]; first compound 0.1 µM): 1
- relative viability ([1]; first compound 0.3162 µM): 0.693
- relative viability ([1]; first compound 1 µM): 0.763
- relative viability ([2]; first compound 0.01 µM): 1.1
- relative viability ([2]; first compound 0.03162 µM): 0.848
- relative viability ([2]; first compound 0.1 µM): 1.29
- relative viability ([2]; first compound 0.3162 µM): 0.747
- relative viability ([2]; first compound 1 µM): 0.81
- relative viability (BAM7 + Olaparib; first compound 0.5 µM): 0.806
- relative viability (BAM7 + Olaparib; first compound 5 µM): 0.746
- relative viability (BAM7 + Olaparib; first compound 15.81 µM): 0.665
- relative viability (BAM7 + Olaparib; first compound 50 µM): 0.707

Cell Line: NCI-H358
- relative viability (BAM7 + Alpelisib; first compound 0.5 µM): 0.953
- relative viability (BAM7 + Alpelisib; first compound 5 µM): 0.837
- relative viability (BAM7 + Alpelisib; first compound 15.81 µM): 0.859
- relative viability (BAM7 + Alpelisib; first compound 50 µM): 0.85
- relative viability ([2]; first compound 0.01 µM): 0.812
- relative viability ([2]; first compound 0.03162 µM): 0.877
- relative viability ([2]; first compound 0.1 µM): 0.667
- relative viability ([2]; first compound 0.3162 µM): 0.631
- relative viability ([2]; first compound 1 µM): 0.562
- relative viability (BAM7 + Olaparib; first compound 5 µM): 0.535
- relative viability (BAM7 + Olaparib; first compound 15.81 µM): 0.547
- relative viability (BAM7 + Olaparib; first compound 50 µM): 0.608

Cell Line: NCI-H1944
- relative viability (BAM7 + Alpelisib; first compound 0.5 µM): 0.875
- relative viability (BAM7 + Alpelisib; first compound 5 µM): 0.902
- relative viability (BAM7 + Alpelisib; first compound 15.81 µM): 0.661
- relative viability (BAM7 + Alpelisib; first compound 50 µM): 0.81
- relative viability ([2]; first compound 0.01 µM): 1.15
- relative viability ([2]; first compound 0.03162 µM): 1.17
- relative viability ([2]; first compound 0.1 µM): 1.21
- relative viability ([2]; first compound 0.3162 µM): 1.21
- relative viability ([2]; first compound 1 µM): 1.21
- relative viability (BAM7 + Olaparib; first compound 0.5 µM): 0.345
- relative viability (BAM7 + Olaparib; first compound 5 µM): 0.391
- relative viability (BAM7 + Olaparib; first compound 15.81 µM): 0.326
- relative viability (BAM7 + Olaparib; first compound 50 µM): 0.436

Cell Line: NCI-H2342
- relative viability (BAM7 + Olaparib; first compound 0.5 µM): 0.49
- relative viability (BAM7 + Olaparib; first compound 5 µM): 0.46
- relative viability (BAM7 + Olaparib; first compound 15.81 µM): 0.347
- relative viability (BAM7 + Olaparib; first compound 50 µM): 0.341

Cell Line: NCI-H522
- relative viability (BAM7 + Olaparib; first compound 0.5 µM): 0.725
- relative viability (BAM7 + Olaparib; first compound 5 µM): 0.585
- relative viability (BAM7 + Olaparib; first compound 15.81 µM): 0.61
- relative viability (BAM7 + Olaparib; first compound 50 µM): 0.643

Cell Line: SK-MES-1
- relative viability (BAM7 + Alpelisib; first compound 0.5 µM): 1.1
- relative viability (BAM7 + Alpelisib; first compound 5 µM): 0.9
- relative viability (BAM7 + Alpelisib; first compound 15.81 µM): 0.985
- relative viability (BAM7 + Alpelisib; first compound 50 µM): 1.01
- relative viability ([2]; first compound 0.01 µM): 1.07
- relative viability ([2]; first compound 0.03162 µM): 1.11
- relative viability ([2]; first compound 0.1 µM): 1.05
- relative viability ([2]; first compound 0.3162 µM): 1.03
- relative viability ([2]; first compound 1 µM): 1
- relative viability (BAM7 + Olaparib; first compound 0.5 µM): 0.82
- relative viability (BAM7 + Olaparib; first compound 5 µM): 0.703
- relative viability (BAM7 + Olaparib; first compound 15.81 µM): 0.613
- relative viability (BAM7 + Olaparib; first compound 50 µM): 0.704

Cell Line: NCI-H2170
- relative viability (BAM7 + Alpelisib; first compound 0.5 µM): 0.631
- relative viability (BAM7 + Alpelisib; first compound 5 µM): 0.603
- relative viability (BAM7 + Alpelisib; first compound 15.81 µM): 0.537
- relative viability (BAM7 + Alpelisib; first compound 50 µM): 0.672
- relative viability (BAM7 + Olaparib; first compound 0.5 µM): 0.497
- relative viability (BAM7 + Olaparib; first compound 5 µM): 0.447
- relative viability (BAM7 + Olaparib; first compound 15.81 µM): 0.439
- relative viability (BAM7 + Olaparib; first compound 50 µM): 0.476

Cell Line: NCI-H1793
- relative viability (BAM7 + Alpelisib; first compound 0.5 µM): 0.752
- relative viability (BAM7 + Alpelisib; first compound 5 µM): 0.892
- relative viability (BAM7 + Alpelisib; first compound 15.81 µM): 0.541
- relative viability (BAM7 + Alpelisib; first compound 50 µM): 0.675
- relative viability ([2]; first compound 0.01 µM): 0.761
- relative viability ([2]; first compound 0.03162 µM): 0.835
- relative viability ([2]; first compound 0.1 µM): 0.756
- relative viability ([2]; first compound 0.3162 µM): 0.851
- relative viability ([2]; first compound 1 µM): 0.806
- relative viability (BAM7 + Olaparib; first compound 0.5 µM): 0.926
- relative viability (BAM7 + Olaparib; first compound 5 µM): 0.882
- relative viability (BAM7 + Olaparib; first compound 15.81 µM): 0.791
- relative viability (BAM7 + Olaparib; first compound 50 µM): 0.95

— the supplement of paper PMC10307832
